Test results: PubChem BioAssay AID365 (MTDP, 2006)
Active and inactive are the calls of the source. The rule behind the calls is not given here.

Biological target: Ribonuclease HI (Escherichia coli (strain K12)) (UniProt P0A7Y4)
Test: E. coli RNase HI inhibitors, dose response, biochemical, FRET RNA/DNA duplex cleavage (AID 365)
Details: E. coli RNase H, FRET RNA/DNA cleavage fluorescence

Chain of Ribonuclease HI (Escherichia coli (strain K12)) (P0A7Y4 whole entry, looked up): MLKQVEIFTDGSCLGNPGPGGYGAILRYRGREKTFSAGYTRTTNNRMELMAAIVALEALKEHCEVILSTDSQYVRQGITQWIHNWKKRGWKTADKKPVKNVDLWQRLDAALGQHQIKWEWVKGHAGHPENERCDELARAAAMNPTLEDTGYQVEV

Row | Compound | IC50
1 | O=[N+]([O-])c1ccc(S(=O)(=O)Cc2ccccc2)c2nonc12 | inactive
2 | O=C1NC(=S)N(c2ccc(Cl)cc2)C(=O)/C1=C\C=C\c1ccccc1[N+](=O)[O-] | 8.8 µM
3 | CCOc1ccc(N2C(=O)/C(=C/c3ccc(I)o3)C(=O)NC2=S)cc1 | 2.4 µM
4 | O=c1c(O)c(-c2cc(O)c(O)c(O)c2)oc2cc(O)cc(O)c12 | inactive
5 | CC(C)=CCC(O)C1=CC(=O)c2c(O)ccc(O)c2C1=O (stereo unspecified) | inactive
6 | O=C1c2ccccc2C(=O)c2c(O)c(O)cc(O)c21 | inactive
7 | O=[N+]([O-])c1c(Cl)cccc1-c1c[nH]cc1Cl | > 100 µM (inactive)
8 | O=C1NC(=S)N(c2ccc(Cl)cc2)C(=O)/C1=C/c1ccco1 | inactive
9 | CCC(=O)Nc1sc2c(c1C(=O)Nc1ccc(OC)cc1)CCCCC2 | 9 µM
10 | C=C1C(=O)O[C@@H]2/C=C(\C)CC/C=C(\C(=O)O)CC/C=C(\C)CC[C@H]12 | > 100 µM (inactive)
11 | Nc1nc(Sc2ccc([N+](=O)[O-])c3nonc23)c2[nH]cnc2n1 | > 100 µM (inactive)
12 | C[C@H]1[C@H](O)c2c(c3c(c4c(-c5ccccc5)cc(=O)oc24)OC(C)(C)C=C3)O[C@@H]1C | > 100 µM (inactive)
13 | Cc1ccc(C2COc3cc(O)c(O)cc3C2)cc1 (stereo unspecified) | inactive
14 | Cc1ccc(NC(=O)c2c(NC(=O)C(F)(F)F)sc(-c3ccccc3)c2C)c(C)c1 | 8.1 µM
15 | Cc1sc(NC(=O)c2ccc(Br)o2)c(C(N)=O)c1C | 4 µM
16 | Cc1cccc(NC(=O)c2c(NC(=O)c3ccc([N+](=O)[O-])cc3)sc3c2CCCC3)c1 | 0.28 µM
17 | COc1ccccc1N=C(NOCc1ccc(Cl)cc1Cl)c1nonc1N | inactive
18 | C=C(CCC(C(=O)O)C1CCC2(C)C3=C(CCC12C)C1(C)CCC(O)C(C)(C)C1CC3)C(C)C (stereo unspecified) | 9 µM
19 | C=CC1=C(C)C2=NC1=CC1=NC(=CC3=C(C)C4=C(O)C(C(=O)OC)C(=C5NC(=C2)C(C)C5CCC(=O)OC/C=C(\C)CCCC(C)CCCC(C)CCCC(C)C)C4=N3)C(CC)=C1C (stereo unspecified) | > 100 µM (inactive)
20 | O=C1NC(=O)/C(=C/c2ccc(-c3ccc(O)c(C(=O)O)c3)o2)S1 | 1.3 µM
21 | N#Cc1c(NC(=O)C(F)(F)F)sc2c3c(=O)c4ccccc4c(=O)c=3oc3ccccc3c12 | inactive
22 | O=C(N/N=C/c1ccc(/C=N/NC(=O)c2ccc(O)c(O)c2)cc1)c1ccc(O)c(O)c1 | 2.1 µM
23 | O=C1NC(=S)N(c2ccccc2F)C(=O)/C1=C/c1ccc(OCc2cccc(C(=O)O)c2)cc1 | inactive
24 | COc1ccc2c(c1)N(C(=O)CN1C(=O)c3ccccc3C1=O)C(C)(C)c1ssc(=S)c1-2 | inactive

Row | Compound | IC50
25 | O=C1O/C(=C(/C(=O)O)c2ccc(O)cc2)C(O)=C1c1cc2c3c(c(O)cc(C4=C(O)/C(=C(\C(=O)O)c5ccc(O)cc5)OC4=O)c3c1)OC2=O | inactive
26 | O=C1/C(=C/c2ccco2)C(=O)N(c2ccc(Br)cc2)C(=S)N1c1ccccc1 | inactive
27 | Cc1ccc(S(=O)(=O)N=C2C=C(Cl)C(=O)C(Br)=C2)cc1 | inactive
28 | Cc1cc(C)c2c(=O)[nH]c(SCC(=O)c3ccc(O)c(O)c3)nc2n1 | 18 µM
29 | O=C1/C(=C\c2ccc(O)c(O)c2)SC(=S)N1c1cccc(Cl)c1 | 2.9 µM
30 | NC(=O)c1c(NC(=O)CCc2ccccc2)sc2c1CCCCCC2 | 2 µM
31 | CCOc1ccc(C2=CC(=O)C=CC2=O)cc1 | inactive
32 | Cc1ccc(-n2c(/C=C/c3ccc(O)c(O)c3)nc3ccccc3c2=O)cc1 | 5 µM
33 | Cc1ccc(NC(=O)c2c(NC(=O)c3ccccc3F)sc3c2CCCCC3)cc1 | 0.6 µM
34 | O=c1c(O)cccc2cc(O)c(O)c(O)c12 | inactive
35 | Cc1cc(Br)ccc1N1C(=O)/C(=C/c2ccco2)C(=O)NC1=S | 0.2 µM
36 | CC1=NN(c2ccc(S(N)(=O)=O)cc2)C(=O)/C1=C/c1ccc(-c2ccc(Cl)cc2Cl)o1 | 9 µM
37 | COc1cc(C)cc2c(-c3c(O)cc(O)c4c3C[C@@H](C)N[C@@H]4C)cc(-c3cc(-c4c(O)cc(O)c5c4C[C@@H](C)N[C@@H]5C)c4cc(C)cc(OC)c4c3O)c(O)c12 | 1.2 µM
38 | NCC[Se][Se]CCN | > 100 µM (inactive)
39 | S=C(Nc1ccc2c(c1)Cc1ccccc1-2)Nc1ccc2c(c1)Cc1ccccc1-2 | 4 µM
40 | Cc1cc(C(=O)O)ccc1-n1c(C)ccc1C | > 100 µM (inactive)
41 | COc1cc(C=O)ccc1OCCCOc1cccc(Oc2ccccc2)c1 | 4.1 µM
42 | CCCCCCCCCCCCCCCC(=O)OCC1OC(n2ccc(N)nc2=O)C(O)C1O (stereo unspecified) | 0.64 µM
43 | C=CC(C)(C)C12CC3C(=O)N/C(=C\c4cnc[nH]4)C(=O)N3C1Nc1ccccc12 (stereo unspecified) | > 100 µM (inactive)
44 | Cc1cc(-c2ccco2)c(C#N)c(SCC(=O)c2ccc(O)c(O)c2)n1 | 1.1 µM
45 | Cc1cc(O)c2c(c1O)C(=O)C13C(=C2O)C(=O)C2C(O)C1C1C(O)C3C(=O)C3=C(O)c4c(O)cc(C)c(O)c4C(=O)C321 (stereo unspecified) | inactive
46 | C=C(C)[C@@H]1CCc2c(O)c(O)c(=O)cc(C)c2C1 | inactive
47 | Oc1c(Br)cc(/C=N/Nc2nnc3c(n2)[nH]c2ccccc23)c(Br)c1O | 4.3 µM
48 | COc1ccc2oc(=O)c(-c3csc(Nc4ccc(Br)cc4)n3)cc2c1 | 2.8 µM

Row | Compound | IC50
49 | CC(C)OC(=O)c1cc(O)c(O)c(O)c1 | > 100 µM (inactive)
50 | CC1=c2c(oc3cc(O)c(Nc4c(C)cc(O)cc4O)c(C)c23)=CC(=O)C1=Nc1c(C)cc(O)cc1O | 5.2 µM
51 | CCCCCCCCCCCCCCCCCCOCC(O)CO (stereo unspecified) | > 100 µM (inactive)
52 | O=C(O)C1CCCCC1c1c2ccc(=O)c(O)c-2oc2c(O)c(O)ccc12 (stereo unspecified) | 2 µM
53 | O=C1C=CC2=C3c4cc(O)c(O)cc4CC3(O)COC2=C1O (stereo unspecified) | inactive
54 | NC(=O)c1c(NC(=O)COc2ccccc2)sc2c1CCCCC2 | 2 µM
55 | COc1ccc(N2C(=O)/C(=C\c3cn(CC(=O)Nc4ccccc4)c4ccccc34)C(=O)NC2=S)cc1 | 2.2 µM
56 | CC(C)c1ccc(O)c(O)c(=O)c1 | inactive
57 | Cc1ccc(C(=O)NC(=S)Nc2ccc(-c3nc4ccccc4s3)cc2)cc1[N+](=O)[O-] | 3.7 µM
58 | O=C(O)/C=C/c1c2ccc(=O)c(O)c-2oc2c(O)c(O)ccc12 | 2 µM
59 | O=S(=O)(Nc1cccc(C(F)(F)F)c1)c1ccc2ccccc2c1 | inactive
60 | O=C1NC(=S)N(c2ccccc2F)C(=O)/C1=C/c1ccc(I)o1 | 7.3 µM
61 | Cc1ccc(-c2c(C#N)c(SCC(=O)c3ccc(O)c(O)c3)nc3c2CCCC3)o1 | 0.2 µM
62 | Cc1sc(NC(=O)c2cccc([N+](=O)[O-])c2)c(C(N)=O)c1C | 0.7 µM
63 | O=C(Cc1ccccc1Cl)c1ccc(O)c(O)c1O | inactive
64 | COc1cc(-c2[o+]c3cc(O)cc(O)c3cc2O)cc(O)c1O | inactive
65 | c1ccc(C(c2cccc3c2ccc2ccccc23)C(c2ccccc2)c2cccc3c2ccc2ccccc23)cc1 (stereo unspecified) | 7.5 µM
66 | Cc1ccccc1-n1c(O)c(C=C2C=CC=N2)c(=O)[nH]c1=S | 8 µM
67 | COc1cc([C@@H]2c3cc4c(cc3C[C@H]3COC(=O)[C@@H]32)OCO4)cc(OC)c1O | 2.4 µM
68 | COc1ccc(-c2nc3sc(-c4ccc(OC)cc4)nc3s2)cc1 | > 100 µM (inactive)
69 | O=C(Nc1sc2c(c1C(=O)Nc1cccc3ccccc13)CCCCC2)c1ccccc1F | 5 µM
70 | O=C1C=CC(=NS(=O)(=O)c2ccc(Cl)c([N+](=O)[O-])c2)C=C1 | 7 µM
71 | O=C(O)c1cc(-c2ccc(/C=C3/Sc4ccccc4C3=O)o2)ccc1O | 1 µM
